Source: article PMC5075098, “Preclinical Evaluation of the Stability, Safety, and Efficacy of CD101, a Novel Echinocandin” (Antimicrobial Agents and Chemotherapy, 2016)
pIC50: −log10 of the molar value. Where two headings read alike, the source gives them in different places. Starred links: 1 amine or outer side, 2 acyl side, 3 side chain; linkers in the order of their positions; H or OH if unused. Positions of bridges follow the written chain, without caps; N, C: chain ends. Non-standard residues stand in square brackets, D forms with d. Residues, ends and D or L forms follow the SMILES beside them. *: point of attachment. Orn(4R-OH,5R-OCH2CH2NMe3+) = C[N+](C)(C)CCO[C@@H](N[*:3])[C@H](O)C[C@H](N[*:1])C(=O)[*:2]; pTerphenylCO(4''-OnC5H11) = CCCCCOc1ccc(-c2ccc(-c3ccc(C(=O)*)cc3)cc2)cc1; hTyr(3S-OH,4S-OH) = N[C@H](C(=O)O)[C@H](O)[C@@H](O)c1ccc(O)cc1; Pro(3S-OH,4S-Me) = C[C@H]1CN[C@H](C(=O)O)[C@H]1O; Hyp = O=C(O)[C@@H]1C[C@@H](O)CN1

Key:
[1] = Plasma protein binding, rapid equilibrium dialysis; type: in vitro ADME, Sprague-Dawley rat; settings: rat, pH 7.4, read-out: protein bound (converted)
Procedure: (§1) Rapid equilibrium dialysis (RED) ([16]) was used to determine cross-species protein binding of CD101 in CD-1 mouse, Sprague-Dawley rat, cynomolgus monkey, chimpanzee, and human plasma. […] Dialysis buffer (350 μl of phosphate-buffered saline [PBS], pH 7.4, with 100 mM sodium phosphate) was loaded into the buffer (left) channel of the RED device. The device was agitated gently at 37°C for 4 h. Samples were placed into a new 96-well plate for matrix matching (25 μl of plasma added to the dialysis buffer aliquots or 25 μl of dialysis buffer to the plasma aliquots). […] Following centrifugation, 200 μl of the supernatant was transferred to a clean 96-well plate and evaporated to dryness at 37°C under nitrogen. Samples were reconstituted in 100 μl of 1:1 acetonitrile-water prior to analysis by LC-MS/MS. The percentage bound was calculated as the difference between 100% and the percentage free (the ratio of the concentration in supernatant to the concentration in plasma).

[2] = Plasma protein binding, rapid equilibrium dialysis; type: in vitro ADME, chimpanzee; settings: pH 7.4, read-out: protein bound (converted)
Procedure: as §1

[3] = Plasma protein binding, rapid equilibrium dialysis; type: in vitro ADME; settings: human, pH 7.4, read-out: protein bound (converted)
Procedure: as §1

[4] = Reactive metabolite screening (glutathione trapping); type: in vitro ADME
Procedure: Samples were diluted to 10 μg/ml into 50:50 acetonitrile-water with 0.1 formic acid. Samples were analyzed by LC (Agilent 1100) with high-resolution MS (Waters quadrupole time of flight [Q-TOF] Premier mass spectrometer with electrospray interface) with concurrent low- and high-energy scans to obtain full-scan parent and product fragment ions. The analytical column was a Phenomenex Kinetex (2.6-μm C18, 100 by 3.0 mm). Waters MassLynx 4.1 software was used for data analysis.

C. albicans R303 [5] = settings: CLSI broth microdilution, read after 24 h at 35°C, prominent growth inhibition (∼50%)
Procedure: Enumeration of MIC and MEC assay inoculum viable counts was performed by plating aliquots of the starting assay inoculum on Sabouraud dextrose agar.

[6] = 4-week repeat-dose, ref Ong et al., submitted, cited from earlier work
Source text: The studies described herein are part of a comprehensive series of safety, pharmacology, and toxicology studies of up to 4 weeks' duration as well as genetic toxicology studies, as required for an investigational new drug application. The results provide important insights for further research and development of CD101 and are best considered in this broader, developing context.

CYP2C8 = biological target: T1, CYP2C8 (Homo sapiens, UniProt P10632); experiment: CYP450 inhibition in human liver microsomes
T1 sequence (P10632 1-490): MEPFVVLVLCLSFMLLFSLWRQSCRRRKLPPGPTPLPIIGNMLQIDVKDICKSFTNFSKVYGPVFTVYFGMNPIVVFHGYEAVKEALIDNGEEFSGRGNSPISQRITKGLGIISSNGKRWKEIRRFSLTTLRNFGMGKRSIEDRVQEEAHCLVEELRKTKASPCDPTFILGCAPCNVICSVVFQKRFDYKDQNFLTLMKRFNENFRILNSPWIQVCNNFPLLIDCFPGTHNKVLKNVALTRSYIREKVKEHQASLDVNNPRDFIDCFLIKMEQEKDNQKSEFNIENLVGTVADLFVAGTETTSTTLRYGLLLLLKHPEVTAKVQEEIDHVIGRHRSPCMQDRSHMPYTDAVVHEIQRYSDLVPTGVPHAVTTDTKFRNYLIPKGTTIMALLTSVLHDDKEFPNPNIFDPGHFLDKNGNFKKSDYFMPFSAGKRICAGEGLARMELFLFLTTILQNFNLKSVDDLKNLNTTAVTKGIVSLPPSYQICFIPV
Procedure: The final DMSO content in the reaction mixture was equal in all solutions used within an assay and was less than 0.2%. […] After incubation for 5 min at 37°C, the reactions were terminated by addition of methanol-containing internal standard (propranolol) for analytical quantification. The quenched samples were incubated at 4°C for 10 min and centrifuged at 4°C for 10 min.

[7] = test system: A. fumigatus (ATCC 13073); experiment: Neutropenic mouse model of A. fumigatus infection, survival; settings: for survival: 10-day observation, n = 10/group
Procedure: Animals were immunosuppressed by three i.p. injections of cyclophosphamide (the first injection at 6 mg/mouse 3 days before inoculation and the second and third injections at 2 mg/mouse on 1 and 4 days after inoculation). […] Dose administration started 1 and 7 h after infection. […] An increase of 50% or more in the survival rate of the active groups compared to the vehicle group indicated significant antifungal efficacy.

C. albicans R303 [8] = experiment: Neutropenic mouse model of C. albicans infection, kidney colony counts; settings: for log reduction in CFU per gram relative to vehicle: 24, 48, 72 h
Procedure: Immunosuppression was induced by two intraperitoneal (i.p.) injections of cyclophosphamide at 150 mg/kg 4 days before and 100 mg/kg 1 day before inoculation. […] The animals in the fluconazole group were sacrificed 48 h after infection.

## CCCCCOc1ccc(-c2ccc(-c3ccc(C(=O)N[C@H]4C[C@@H](O)[C@@H](OCC[N+](C)(C)C)NC(=O)[C@@H]5[C@@H](O)[C@@H](C)CN5C(=O)[C@H]([C@@H](C)O)NC(=O)[C@H]([C@H](O)[C@@H](O)c5ccc(O)cc5)NC(=O)[C@@H]5C[C@@H](O)CN5C(=O)[C@H]([C@@H](C)O)NC4=O)cc3)cc2)cc1 [CD101] ({pTerphenylCO(4''-OnC5H11)}-[Orn(4R-OH,5R-OCH2CH2NMe3+)]T[Hyp][hTyr(3S-OH,4S-OH)]T[Pro(3S-OH,4S-Me)]; lactam 1-C)
[1]
  fraction unbound: 0.022
[2]
  fraction unbound: 0.012
[3]
  fraction unbound: 0.013
[4]; PBS pH 7.4, 37°C, 24 h of incubation (Fig. 3 legend), LC-HRMS
  degradation on incubation with and without GSH: No degradation observed
[4]; PBS pH 7.4, excess GSH, 37°C, LC with high-resolution MS
  GSH adduct formation (reactive intermediate): not found to generate any GSH adduct
C. albicans R303 [5]
  MIC: 0.12 µg/mL
[6]; cynomolgus monkeys
  no observed adverse effect level relative to the efficacious plasma exposure level: 47 times
[6]; rats
  no observed adverse effect level relative to the efficacious plasma exposure level: 34 times
CYP2C8
  pIC50: 4.59
[7]; 0.2 mg/kg i.v. BID for 5 days
  survival: 80%
[7]; 1 mg/kg i.v. BID for 5 days
  survival: 90%
[7]; 5 mg/kg i.v. BID for 5 days
  survival: 100%
[7]; BID for 5 days, CD101 all dose groups and anidulafungin 1 and 5 mg/kg i.v. (P < 0.05), amphotericin B 0.3 mg/kg i.p.
  10-day survival rate compared to the vehicle group: significant increase
C. albicans R303 [8]; 0.2 mg/kg single i.v. dose
  log reduction in CFU per gram relative to vehicle: less than 1 log
C. albicans R303 [8]; 0.4 mg/kg single i.v. dose
  log reduction in CFU per gram relative to vehicle: up to 1.7 log
C. albicans R303 [8]; 0.6 mg/kg single i.v. dose
  log reduction in CFU per gram relative to vehicle: up to 2.9 log
C. albicans R303 [8]; 0.8 mg/kg single i.v. dose
  log reduction in CFU per gram relative to vehicle: up to 4.7 log
C. albicans R303 [8]; CD101 0.6 and 0.8 mg/kg i.v., at 24, 48, and 72 h
  antimicrobial effect (≥99%, 2-log reduction in CFU per gram): significant
